Where two headings read alike, the source gives them in different places. Where a SMILES comes first, the peptide text is derived from it. [ ]: non-standard residue; d: D form. βAla = NCCC(=O)O
What was measured:
[1] = PAMPA-BBB literature value, cited from earlier work
Text: Supplement Table3.XLSX, sheet "Primer list" | column: Pe,lit

in vitro = conditions: for Papp / Papp at 18 h: pH 7.4
Experimental: A 96-well acceptor microplate (PTFE, Millipore) was prepared by filled each well with 300 μL of PBS/DMSO (95:5, pH = 7.4), while the donor microplate artificial membrane (PVDF membrane, pore size […], Millipore) was carefully coated with 5 μL of PBL dissolved in dodecane ([…]). Each compound was dissolved in DMSO, diluted with PBS/DMSO (95:5, pH = 7.4) to a final concentration of 40–100 μM in the donor well, filtered with a Millex filter, and applied to the donor microplate wells (200 μL). Next, the donor plate was carefully placed on top of the acceptor plate, thereby bringing the artificial membrane in contact with the buffer solution underneath. The donor well was covered with a lid, and the whole system was left undisturbed overnight (18 h) at 25°C in a container sealed with damp paper towels to prevent evaporation. After incubation, the donor microplate was carefully removed, and UV-vis spectroscopy was used to determine the amounts of the tested compounds in the acceptor and donor microplate wells, respectively. Each sample was evaluated at five wavelengths in four wells during three separate runs; accordingly, all data are presented as mean values with relevant standard deviation. The permeability values (Pe,exp, cm/s) were calculated according to the following expression: Pe,exp = {−VdVa/[(Vd + Va)At]ln–1—da/deq}, in which Vd and Va represent the volumes of the donor and the acceptor wells, respectively, A is the surface of the artificial membrane, t is the permeation time, whilst da and deq are the absorbance measured in the acceptor well and the theoretical equilibrium absorbance value, respectively. After the PAMPA-BBB test for all compounds was completed, the integrity of the lipid membrane was evaluated based on the transport of Lucifer Yellow (Sigma-Aldrich)—a fluorescent molecule with very limited membrane permeability rejected by a uniform and integral lipid membrane performed according to the Millipore protocol lit. n. PC1545EN00 (https://www.sigmaaldrich.com/technical-documents/protocols/biology/membrane-integrity-test-for-lipid-pampa-artificial-membranes.html).

GAL4 = molecular target: T1, GAL4 (Saccharomyces cerevisiae, UniProt P04386); assay: pGAL1::YFP reporter fluorescence (YFP/OD600), BY4741 treated with chemically synthesized peptides (feeding); type: cell-based; conditions: 100 µM peptide; 1.00 and 10.00 Gal/Glu ratios; 15.5 h
T1 construct: endogenous in cells; host or cells: S. cerevisiae BY4741 (S288C derivative) with integrated GAL1p-YFP cassette
Experimental: The fluorescence signal of BY4741 pGAL1::YFP reporter strain was measured using a Varioskan LUX multimode microplate reader (ThermoFisher Scientific). Overnight cultures were pelleted, washed twice in water and OD600 normalized for the different cultures. An equal volume of normalized cultures was pipetted in each well of a 96-well plate containing different galactose/glucose (Gal/Glu) ratios. When treating the cells with chemically synthesized G4CP2, a 10 mM stock solution (100% DMSO) was diluted to a working concentration of 100 µM in each well designated for treatment. Fluorescence and OD600 measurements were performed by incubating plates at 28°C, shaking 2 min at 180 rpm, before each measurement.
To test the effects of exogenous administration of chemically synthetized G4CP2 on pGAL1::YFP biosensor, a random-selected control peptide (CP11) was used. […] G4CP2 and CP11 were used at 100 µM to treat BY4741 pGAL1::YFP yeast cells grown in 96-well plates under 1.00 and 10.00 Gal/Glu ratios. YFP/OD600 values were again recorded for 15.5 h (Figure 4D).

[2] = marked a (or a,b; then also Kerns et al., 2004), ref Di et al., 2003
[3] = marked b, ref Kerns et al., 2004

## Cc1nnc2n1-c1ccc(Cl)cc1C(c1ccccc1)=NC2 [Alprazolam]
[1]; [2]
  Pe,lit: 5.4a 10-6 cm/s
In vitro; pig, PAMPA
  Papp: 5.1 ± 0.4 ×10⁻⁶ cm/s

## CC(C)NCC(O)COc1ccc(CC(N)=O)cc1 (stereo not shown) [Atenolol]
In vitro; pig, PAMPA
  Papp at 18 h: 0.74 ± 0.04 ×10⁻⁶ cm/s

## C/C=C/C[C@@H](C)[C@@H](O)[C@H]1C(=O)N[C@@H](C(C)C)C(=O)N(C)CC(=O)N(C)[C@@H](CC(C)C)C(=O)N[C@@H](C(C)C)C(=O)N(C)[C@@H](CC(C)C)C(=O)N[C@@H](C)C(=O)N[C@H](C)C(=O)N(C)[C@@H](CC(C)C)C(=O)N(C)[C@@H](CC(C)C)C(=O)N(C)[C@@H](C(C)C)C(=O)N1C [CSD]
In vitro; PAMPA
  Papp: 0.93 ± 0.5 ×10⁻⁶ cm/s

## Cn1c(=O)c2c(ncn2C)n(C)c1=O [Caffeine]
In vitro; PAMPA-BBB validation, porcine brain lipid in dodecane (20 mg/L), PBS/DMSO 95:5 pH 7.4, 40–100 μM donor, 18 h, 25°C, UV-vis, mean ± SD, four wells, three runs
  Pe,exp: 1.7 ± 0.2 10-6 cm/s

## CCN(CC)CCCC(C)Nc1ccnc2cc(Cl)ccc12 (stereo not shown) [Chloroquine]
In vitro; pig, PAMPA
  Papp at 18 h: 2.4 ± 0.1 ×10⁻⁶ cm/s

## CN(C)CCCN1c2ccccc2Sc2ccc(Cl)cc21 [Chlorpromazine]
In vitro; pig, PAMPA
  Papp at 18 h: 6.8 ± 0.3 ×10⁻⁶ cm/s

## CN1C(=O)CN=C(c2ccccc2)c2cc(Cl)ccc21 [Diazepam]
In vitro; pig, PAMPA
  Papp: 13.7 ± 0.8 ×10⁻⁶ cm/s

## OCCN(CCO)c1nc(N2CCCCC2)c2nc(N(CCO)CCO)nc(N3CCCCC3)c2n1 [Dipyridamole]
[1]; [3]
  Pe,lit: 3.5b 10-6 cm/s
In vitro; pig, PAMPA
  Papp at 18 h: 3.8 ± 0.4 ×10⁻⁶ cm/s

## CC(C)[C@H]1C(=O)O[C@H](C(C)C)C(=O)N(C)[C@@H](C(C)C)C(=O)O[C@H](C(C)C)C(=O)N(C)[C@@H](C(C)C)C(=O)O[C@H](C(C)C)C(=O)N1C [EnB]
In vitro; PAMPA
  Papp at 18 h: 8.3 ± 0.7 ×10⁻⁶ cm/s

## CCn1cc(C(=O)O)c(=O)c2cc(F)c(N3CCNCC3)nc21 [Enoxacin]
In vitro; pig, PAMPA
  Papp at 18 h: 0.98 ± 0.3 ×10⁻⁶ cm/s

## CSCC[C@@H]1NC(=O)[C@H](CC(=O)O)NC(=O)[C@H](Cc2ccccc2)NC(=O)[C@H](Cc2ccccc2)NC(=O)[C@H](Cc2ccc(O)cc2)NC(=O)[C@H](CCCNC(=N)N)NC(=O)CCNC(=O)[C@H](Cc2ccc(O)cc2)NC(=O)[C@H](Cc2c[nH]c3ccccc23)NC1=O [G4CP2] (cyclo(DMWY[βAla]RYFF))
GAL4
  YFP fluorescence signal over time (YFP/OD600): strongly attenuated
In vitro; PAMPA
  passive permeability classification: moderate-to-good
  Papp: 3.3 ± 0.4 ×10⁻⁶ cm/s

## CCn1cc(C(=O)O)c(=O)c2cc(F)c(N3CCNC(C)C3)c(F)c21 (stereo not shown) [Lomefloxacin]
In vitro; pig, PAMPA
  Papp at 18 h: 1.4 ± 0.1 ×10⁻⁶ cm/s

## CCn1cc(C(=O)O)c(=O)c2cc(F)c(N3CCNCC3)cc21 [Norfloxacin]
In vitro; pig, PAMPA
  Papp at 18 h: 0.15 ± 0.01 ×10⁻⁶ cm/s

## O=C1Nc2ccc(Cl)cc2C(c2ccccc2)=NC1O (stereo not shown) [Oxazepam]
[1]; [2]
  Pe,lit: 10a 10-6 cm/s

## CN1C(C(=O)Nc2ccccn2)=C(O)c2ccccc2S1(=O)=O [Piroxicam]
[1]; [2]
  Pe,lit: 2.5a 10-6 cm/s

## CC(=O)[C@H]1CC[C@H]2[C@@H]3CCC4=CC(=O)CC[C@]4(C)[C@H]3CC[C@]12C [Progesterone]
In vitro; pig, PAMPA
  Papp at 18 h: 10.9 ± 0.7 ×10⁻⁶ cm/s

## COc1cc(Cc2cnc(N)nc2N)cc(OC)c1OC [Trimethoprim]
[1]; [3]
  Pe,lit: 2.2b 10-6 cm/s
In vitro; pig, PAMPA
  Papp at 18 h: 2.5 ± 0.2 ×10⁻⁶ cm/s
